According to patent US20110015137A1, “RECA INHIBITORS AND THEIR USES AS MICROBIAL INHIBITORS OR POTENTIATORS OF ANTIBIOTIC ACTIVITY” (Trustees of Boston University, priority 2007, published 2011):
Where a name gives a salt, the structure may show the parent alone.

tested on: S. aureus strain S3; experiment: Cell growth assay, first assay (gentamycin potentiation); assay type: cell-based; conditions: gentamycin alone, sublethal concentration 0.3 μg/mL
Procedure: Cell Growth Assay. This assay measures the ability of cells to grow in the presence of a sublethal dose (i.e., a dose below the MIC) of an antibiotic agent (or test agent, or combination thereof). In general, cells are grown, typically to saturation, and are then diluted and inoculated onto rich medium and onto medium containing a sublethal dose of antibiotic agent. Plates are then grown overnight, and OD600 is measured after overnight growth, as compared with blank plate. If desired, a test agent can be added to the plate, either alone or in combination with the known antibiotic agent, and the ratio of OD600 in the presence of the test agent to OD600 in the absence of the test agent, can be determined. Additional ratios that can be useful as controls include, for example, OD600 in the presence vs. absence of antibiotic agent; OD600 in the absence of any agent vs. in the presence of both antibiotic agent and test agent; etc.
Actinomycin D Potentiates Gentamycin: In the first assay, S. aureus strain S3 was used in a cell growth assay as described in FIG. 4. The strain was grown in the presence and absence of gentamycin and actinomycin D. Various concentrations of gentamycin and actinomycin D were used. Specifically, 40 μL gentamycin stock (5 mg/mL) was first diluted in 360 μL H2O. Then, 200 μL of the diluted gentamycin solution was further mixed with 200 μL H2O. […]

Compound | growth of S. aureus strain S3
gentamycin | grew equally well

biological target: T1, E. coli RecA protein (Escherichia coli, UniProt P0A7G6); experiment: High throughput RecA-luciferase assay (ATP remaining after RecA ATPase reaction); assay type: biochemical; conditions: compounds identified from the screen of more than 22,000 compounds
T1 construct: purchased Epicentre, Madison, Wis
Procedure: RecA is a DNA-dependent ATPase (i.e., it catalyzes the reaction adenosine triphosphate [ATP]→adenosine diphosphate [ADP]). An assay was developed for RecA ATPase activity based on detection of the amount of ATP remaining in a reaction mixture following incubation of RecA protein, DNA, and ATP. In an exemplary assay, E. coli RecA protein is incubated in reaction buffer with DNA, ATP, and any test compound or compounds for a measured amount of time. The quantity of ATP remaining after the RecA reaction can be quantitated using a subsequent luciferase assay. The luciferase emits more light as more ATP is available. In some embodiments, the amount of ATP remaining can be compared to controls containing either a known inhibitor (full inhibition control) or no test compound (full activity control). In some embodiments, a positive control (having no DNA added to the well) and negative control (having DNA and no compounds) are run with each screen. Positive responses are based upon the percent reduction of activity of luciferase, with a high percentage representing increased RecA inhibition. Percent inhibition can be calculated according to the following equation: […]
An in vitro RecA-luciferase assay was used to screen for RecA inhibitors. RecA is a DNA-dependent ATPase (i.e., it catalyzes the reaction adenosine triphosphate [ATP]→adenosine diphosphate [ADP]). An assay was developed for RecA ATPase activity based on detection of the amount of ATP remaining in a reaction mixture following incubation of RecA protein, DNA, and ATP. […] The quantity of ATP remaining after the RecA reaction was measured by a subsequent luciferase assay. The luciferase emit more light as more ATP was available.
For high throughput screening, the following reagents were added to each well of a 384 well plate:
The reagents were mixed and incubate at room temperature for about 5 minutes. Then, 5.0 μL of ATP mix, as indicated below, were added to each well.
The mix was incubated at room temperature for about 90-120 minutes. 12.5 μL of Kinase-Glo® plus (Promega) were added to each well and incubated at room temperature for about 10 minutes or more. The luminescence of the reaction was measured.
A positive control (having no DNA added to the well) and negative control (having DNA and no compounds) were run with each screen. Positive responses were based upon the percent reduction of activity of luciferase, with a high percentage representing increased RecA inhibition. Percent inhibition can be calculated according to the following equation: […]

T1 sequence (P0A7G6 2-353): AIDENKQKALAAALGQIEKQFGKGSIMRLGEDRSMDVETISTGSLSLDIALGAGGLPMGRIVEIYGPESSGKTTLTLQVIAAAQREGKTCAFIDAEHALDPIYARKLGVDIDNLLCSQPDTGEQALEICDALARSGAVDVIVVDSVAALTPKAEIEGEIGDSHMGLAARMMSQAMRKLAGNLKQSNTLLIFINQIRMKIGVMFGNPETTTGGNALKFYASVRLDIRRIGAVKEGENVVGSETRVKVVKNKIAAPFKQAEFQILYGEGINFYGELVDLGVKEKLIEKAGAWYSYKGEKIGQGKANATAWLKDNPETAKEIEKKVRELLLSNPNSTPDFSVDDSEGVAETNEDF

Compound | activity in the RecA-luciferase screen (in words)
C[n+]1c2cc(N)ccc2cc2ccc(N)cc21.[Cl-] [acriflavinium hydrochloride] | particularly active
Nc1c2ccccc2nc2ccccc12 [acrisorcin] | particularly active
Oc1c(Cl)cc(Cl)cc1Sc1cc(Cl)cc(Cl)c1O [bithionol] | particularly active
COc1cc2cc3c4cc(OC)c(OC)cc4cc[n+]3c(C)c2cc1OC.O.[Cl-] [coralyne chloride hydrate] | particularly active
COc1cc2cc3c4cc(OC)c(OC)cc4cc[n+]3c(C)c2cc1OC.[Cl-] [coralyne chloride] | particularly active
COc1cccc2c1C(=O)c1c(O)c3c(c(O)c1C2=O)C[C@@](O)(C(C)=O)C[C@@H]3O[C@H]1C[C@H](N)[C@H](O)[C@H](C)O1 [daunorubicin hydrochloride] | particularly active
Cc1cc(N)c2ccccc2[n+]1CCCCCCCCCC[n+]1c(C)cc(N)c2ccccc21 [dequalinium chloride] | particularly active
Cc1c2ccncc2c(C)c2c1[nH]c1ccccc12 [ellipticine] | particularly active
Oc1c(Cl)cc(Cl)c(Cl)c1Cc1c(O)c(Cl)cc(Cl)c1Cl [hexachlorophene] | particularly active
CC[n+]1c(-c2ccccc2)c2cc(N)ccc2c2ccc(N)cc21 [homidium bromide] | particularly active
Cl.Cl.O=C1c2c(O)ccc(O)c2C(=O)c2c(NCCNCCO)ccc(NCCNCCO)c21 [mitoxathrone hydrochloride] | particularly active
CC[N+](C)(CC)CCC[n+]1c(-c2ccccc2)c2cc(N)ccc2c2ccc(N)cc21.[I-].[I-] [propidium iodide] | particularly active
CCN(CC)CCCC(C)Nc1c2ccc(Cl)cc2nc2ccc(OC)cc12 (stereo not drawn) [quinacrine hydrochloride] | particularly active
doxorubicin hydrochloride | particularly active
